Test results reported in patent publication US7776893B2, “Use of PDE4 inhibitors for the treatment of diabetes mellitus” (NYCOMED GmbH, priority 2003, dated 2010).

How the values were obtained:
Type in all cases: in vivo
C57BLKS db/db mice [1] = experiment: 10 days study: oral glucose tolerance, blood glucose 15 minutes after glucose application; conditions: fasted 24 h, 15 minutes after 1 g/kg oral glucose
Protocol: (§1) Female C57BLKS db/db mice obtained from M&B A/S (8680 Ry, Denmark) were used In the studies at 10 to 11 weeks of age. Mice were housed 10 per cage and allowed free access to water and chow (chow 3433, Provimi Kliba SA, 4303 Kaiseraugst, Switzerland).
(§2) Mice were allowed to acclimate to the local animal facilities for 1 week and retro-orbital blood samples were obtained 3 to 7 days prior to the start of the study.
(§3) Mice were treated with vehicle or a selected PDE4 inhibitor compound once daily in the morning. The selective PDE4 inhibitor compounds to be tested were suspended in 4% methocel and applied via oral gavage using oral feeding & dosing needles (outer diameter: 1.5 mm, TSE GmbH, 61350 Bad Homburg, Germany). A volume of 10 ml/kg body weight was administered for each dose.
(§4) 10 days studies: Mice were treated with vehicle or a selected PDE4 inhibitor compound once daily in the morning. On day 9, mice were fasted for 24 hours by removing chow 1 hour after drug application. On day 10, glucose tolerance was assessed by oral application of 1 g/kg/10 ml glucose. Blood was sampled 15 minutes after glucose application and levels of glucose (accu-chek, Roche Diagnostics GmbH, 68298 Mannheim, Germany) were measured.

C57BLKS db/db mice [2] = experiment: 56 days study: fasting blood glucose and oral glucose tolerance; conditions: for Blood glucose 15 min after glucose application: 1 g/kg oral glucose; for Blood glucose fasting: fasted 24 h
Protocol: as §1, §2, §3
as §4, with “56 days” for “10 days”, “day 55,” for “day 9,”, “day 56, fasting blood glucose levels were measured and” for “day 10,”, “Germany) and lactate (lactate reagent, Sigma-Aldrich GmbH, 82039 Deisenhofen, Germany)” for “Germany)”

C57BLKS db/db mice [3] = experiment: 56 days study: lactate levels, fasting and after glucose application; conditions: for Lactate 15 min after glucose application: 1 g/kg oral glucose; for Lactate fasting: serum, fasted 24 h
Protocol: as §1, §2, §3
as §4, with “56 days” for “10 days”, “day 55,” for “day 9,”, “day 56, fasting blood glucose levels were measured and” for “day 10,”, “Germany) and lactate (lactate reagent, Sigma-Aldrich GmbH, 82039 Deisenhofen, Germany)” for “Germany)”

Lactate 15 min after glucose application (C57BLKS db/db mice [3]; 3 mg/kg oral once daily) [mg/dL] | Lactate 15 min after glucose application (C57BLKS db/db mice [3]; 30 mg/kg oral once daily) [mg/dL] | Lactate fasting (C57BLKS db/db mice [3]; 3 mg/kg oral once daily) [mg/dL] | Lactate fasting (C57BLKS db/db mice [3]; 30 mg/kg oral once daily) [mg/dL] | Structure (SMILES) | Blood glucose (C57BLKS db/db mice [1]; 3 mg/kg oral once daily) [mg/dL] | Blood glucose (C57BLKS db/db mice [1]; 30 mg/kg oral once daily) [mg/dL] | Blood glucose 15 min after glucose application (C57BLKS db/db mice [2]; 3 mg/kg oral once daily) [mg/dL] | Blood glucose fasting (C57BLKS db/db mice [2]; 3 mg/kg oral once daily) [mg/dL] | Blood glucose 15 min after glucose application (C57BLKS db/db mice [2]; 30 mg/kg oral once daily) [mg/dL] | Blood glucose fasting (C57BLKS db/db mice [2]; 30 mg/kg oral once daily) [mg/dL]
70 | 61 | 49 | 43 | COc1cc2c(cc1OC)[C@@H]1CCCC[C@@H]1N=C2c1ccc(OCC2CC2)c(OCC2CC2)c1 [COMPOUND A, (−)-cis-8,9-Dimethoxy-6-[3,4-bis-(cyclopropylmethoxy)phenyl]-1,2,3,4,4a,10b-hexahydrophenanthridine] | 507 | 411.5 | 580 | 279 | 352 | 193
 |  |  |  | COc1cc2c(cc1OC)[C@@H]1CCCC[C@@H]1N=C2c1ccc(C(=O)c2ccccc2)cc1 [COMPOUND B, (−)-cis-8,9-Dimethoxy-6-(4-benzoylphenyl)-1,2,3,4,4a,10b-hexahydrophenanthridine] | 362 | 251 |  |  |  | 
 |  |  |  | COc1cc2c(cc1OC)[C@@H]1CCCC[C@@H]1N=C2c1ccc(C(=O)O)cc1.Cl [COMPOUND C, (+)-cis-8,9-Dimethoxy-6-(4-carboxyphenyl)-1,2,3,4,4a,10b-hexahydrophenanthridine Hydrochloride] | 506 | 449 |  |  |  | 
 |  |  |  | CCn1nnc(-c2ccc(C3=N[C@H]4CCCC[C@H]4c4cc(OC)c(OC)cc43)cc2)n1 [COMPOUND D, (−)-cis-6-[4-(2-Ethyl-2H-tetrazol-5-yl)-phenyl]-8,9-dimethoxy-1,2,3,4,4a,10b-hexahydrophenanthridine] | 437 | 285 |  |  |  | 
